Experimental data published in article PMC9909315, “SY-707, an ALK/FAK/IGF1R inhibitor, suppresses growth and metastasis of breast cancer cells” (Acta Biochimica et Biophysica Sinica, 2022).
Like-named read-outs stand apart in the source and are kept apart here.

What was measured:
Pharmacokinetic study = format: in vivo, SD rats; conditions: SD, serum, Rat, 5 mg/kg PO; for CL/F: read-out: Cl_F_obs (converted); for MRT inf: read-out: MRT INF_obs
Description: […] […] The serum samples were collected by centrifugation and stored at –80 °C. Compound concentrations in the sample serums were further analyzed with an API-4000 LC-MS/MS system (Applied Biosystem, Foster City, USA), and pharmacokinetic parameters ( T 1/2, T max, C max, AUC 0-INF, Cl_F_obs, MRT INF_obs, and F(%)) were calcuated using the WinNonlin software (version 6.2; WinNonlin Professional, Pharsight, USA).

MCF-7 cells = assay: Cell adhesion assay; format: cell-based; conditions: MCF-7, 24 h pretreatment, dose-dependent
Description: (§1) MCF-7 and T47D cells were plated in 6-well plates and pretreated with different concentrations of PF-562271 or SY-707 for 24 h, and then trypsinized, washed and resuspended in culture medium. Cells were added into each well and incubated for 6 h. Non-adherent cells were collected by washing with PBS and counted.

T47D cells = assay: Cell adhesion assay; format: cell-based; conditions: 24 h pretreatment, dose-dependent
Description: as §1

[1] = tested on: phosphorylation of Pyk2 at Tyr402; assay: Western blot of Pyk2 phosphorylation in T47D cells; format: cell-based; conditions: 1 h treatment
Description: Equal amounts of cell lysates were loaded onto 10% SDS-PAGE gel and separated by electrophoresis. Separated proteins were then electro-transferred onto polyvinylidene fluoride (PVDF) membranes (Millipore, Bedford, USA). After being blocked with Tris-buffered saline containing 0.1% Tween-20 (TBST) and 5% bovine serum albumin (BSA), the membranes were incubated with primary antibodies at room temperature for 2 hours or at 4°C, then washed with TBST, followed by treatment with horseradish peroxidase (HRP)-conjugated goat anti-rabbit IgG secondary antibody at room temperature for another 1 h. The targeted protein bands were visualized using an enhanced chemiluminescence (ECL) plus system (Thermo Fisher Scientific). […]
Figure4 Inhibitory effects of SY-707 on the phosphorylation of FAK(A,B) Concentration-dependent inhibition of SY-707 on phosphorylation of FAK in T47D (A) and MCF-7 (B) cells. […] Cell lysates were analyzed by western blot analysis using specific antibodies against p-FAK, p-Pyk2, p-AKT and p-ERK respectively. […] Cell lysates were analyzed by western blot analysis using specific antibodies against p-IGF1R, p-STAT3, p-AKT and p-ERK respectively.

[2] = tested on: phosphorylation of FAK at Tyr397; assay: Western blot of FAK phosphorylation in T47D cells; format: cell-based; conditions: 1 h treatment
Description: Equal amounts of cell lysates were loaded onto 10% SDS-PAGE gel and separated by electrophoresis. Separated proteins were then electro-transferred onto polyvinylidene fluoride (PVDF) membranes (Millipore, Bedford, USA). After being blocked with Tris-buffered saline containing 0.1% Tween-20 (TBST) and 5% bovine serum albumin (BSA), the membranes were incubated with primary antibodies at room temperature for 2 hours or at 4°C, then washed with TBST, followed by treatment with horseradish peroxidase (HRP)-conjugated goat anti-rabbit IgG secondary antibody at room temperature for another 1 h. The targeted protein bands were visualized using an enhanced chemiluminescence (ECL) plus system (Thermo Fisher Scientific). Primary antibodies against phospho-FAK (3283, 1:1000 dilution), phospho-ERK (4377, 1:2000 dilution), phospho-AKT (4060, 1:2000 dilution), FAK (3285, 1:1000 dilution), AKT (6703, 1:1000 dilution) and β-Actin (5125, 1:10,0000 dilution) were purchased from Cell Signaling Technology (Beverly, USA) and the HRP-conjugated goat anti-rabbit IgG (ZDR-5306, 1:10,000 dilution) was purchased from Jackson (West Grove, USA ).
Cells were cultured in 6-well plates and treated with the indicated concentrations of SY-707 for 1 h before stimulation with or without 100 ng/mL IGF1 for 10 min. Control cells received the drug vehicle with 0.1% DMSO. […]

SW620 = assay: Cell proliferation assay (CellTiter-Glo/CellTiter-Blue); format: cell-based; conditions: Homo sapiens, SW-620, 72 h, read-out: IC50 anti-proliferation
Description: (§2) MCF-7, T47D, MDA-MB-231, MIA Paca-2, PANC-1, SW620, HT-29, U87MG, and A549 cell lines were purchased from the Cell Bank of Chinese Academy of Science (Shanghai, China). Cells were cultured in DMEM or RPMI-1640 (Gibco, BRL, USA) supplemented with 10% FBS (HyClone, Logan, USA) and 50 IU penicillin/streptomycin in a humidified atmosphere with 5% CO 2 at 37°C. The effects of SY-707 on cell proliferation were measured using CellTiter-Glo ® or CellTiter-Blue ® Cell Viability Assay kits (Promega, Beijing, China). In brief, cells were seeded in 96-well plates at low destiny with 195 μL of medium per well. The stock solutions of compounds were 3-fold serially diluted with DMSO from 10 mM to 0.3 nM, and 4 μL of solution at each concentration was mixed with 96 μL of serum free medium, then 5 μL of the resulted solution was added to each well. After treatment for 72 h, 25 μL of CellTiter-Glo ® reagent (for adherent cells) or 35 μL CellTiter-Blue ® reagent (for suspension cells) was added to each well, and the resulted mixture was further incubated at room temperature for 10 min or 4 h. The luminescence signals were measured using EnVision ® multilabel plate reader (PerkinElmer), and the fluorescent signals were examined using FlexStation 3 (Molecular Devices, Sunnyvale, USA), and the IC 50 values were calculated using Prism ® software (Version 5.0) and presented as the average of three independent experiments performed in duplicate.

A549 = assay: as above; format: cell-based; conditions: Homo sapiens, A549, 72 h, read-out: IC50 anti-proliferation
Description: as §2

MCF-7 = assay: as above; format: cell-based; conditions: Homo sapiens, MCF7, 72 h, read-out: IC50 anti-proliferation
Description: as §2

MIA PACA-2 = assay: as above; format: cell-based; conditions: Homo sapiens, MIA PaCa-2, 72 h, read-out: IC50 anti-proliferation
Description: as §2

U87MG = assay: as above; format: cell-based; conditions: Homo sapiens, U-87 MG, 72 h, read-out: IC50 anti-proliferation
Description: as §2

HT29 = assay: as above; format: cell-based; conditions: Homo sapiens, HT-29, 72 h, read-out: IC50 anti-proliferation
Description: as §2

Structure (SMILES): COc1cc(N2CCC(N3CCN(C)CC3)CC2)ccc1Nc1nc2c(c(Nc3ccccc3S(=O)(=O)NC(C)C)n1)CCN2 [SY-707, N-isopropyl-2-((2-((2-methoxy-4-(4-(4-methylpiperazin-1-yl)piperidin-1-yl)phenyl)amino)-6,7-dihydro-5H-pyrrolo[2,3-d]pyrimidin-4-yl)amino)benzenesulfonamide]
- AUC(0-inf) (Pharmacokinetic study; Female): 8.59 µg·h/mL
- Cmax (Pharmacokinetic study; Female): 0.639 µg/mL
- Tmax (Pharmacokinetic study; Female): 4.33 h
- bioavailability (Pharmacokinetic study; Female): 33.2%
- half-life (Pharmacokinetic study; Female): 11.2 h
- CL/F (Pharmacokinetic study; Female): 0.586 L/h/kg
- MRT inf (Pharmacokinetic study; Female): 13.8 h
- AUC(0-inf) (Pharmacokinetic study; Male): 13.3 µg·h/mL
- Cmax (Pharmacokinetic study; Male): 0.909 µg/mL
- Tmax (Pharmacokinetic study; Male): 3.33 h
- bioavailability (Pharmacokinetic study; Male): 38.3%
- half-life (Pharmacokinetic study; Male): 13 h
- CL/F (Pharmacokinetic study; Male): 0.378 L/h/kg
- MRT inf (Pharmacokinetic study; Male): 15.5 h
- AUC(0-inf) (Pharmacokinetic study; both sexes, All): 11 µg·h/mL
- Cmax (Pharmacokinetic study; both sexes, All): 0.774 µg/mL
- Tmax (Pharmacokinetic study; both sexes, All): 3.83 h
- bioavailability (Pharmacokinetic study; both sexes, All): 36.2%
- half-life (Pharmacokinetic study; both sexes, All): 12.1 h
- CL/F (Pharmacokinetic study; both sexes, All): 0.482 L/h/kg
- MRT inf (Pharmacokinetic study; both sexes, All): 14.7 h
- cell adhesion (MCF-7 cells): characteristically repressed
- cell adhesion (T47D cells): characteristically repressed
- phosphorylation of Pyk2 at Tyr402 [1]: dose-dependently suppressed
- phosphorylation of FAK at Tyr397 [2]: dose-dependently suppressed
- IC50 (SW620): 0.81 µM
- IC50 (A549): 5.7 µM
- IC50 (MCF-7): 0.59 µM
- IC50 (MIA PACA-2): 1.3 µM
- IC50 (U87MG): > 10 µM
- IC50 (HT29): 0.6 µM
